The values that follow come from patent EP3060679B1, “METHOD AND KIT FOR DETERMINING WHETHER A SUBJECT SHOWS AN IMMUNE RESPONSE” (BioNTech Diagnostics GmbH, priority 2013, dated 2015).

Where two headings read alike, the source gives them in different places.

One assay has as its system tumor. How it is done:
(§1) Before the vaccination therapy is started, the method described herein above is applied to establish HLA- and TCR-specific gene expression profiles of the patient's PBMCs. Furthermore the tumor size/mass is determined by CT scan. During therapy, the patients received 1 mg of the HLA-B^∗0702-restricted peptide […] every 2 weeks for 6 doses.
(§2) In addition HLA-expression profiles are established from tumor biopsies that are taken from the patients 12 weeks after the last vaccination.

For another assay, the system named is HLA-B∗0702.
Excerpt: as §2
For further investigation new biopsies of the tumors of both patients are taken for analysis of tumor antigen expression and the establishment of a HLA expression profile using the method of the present invention.

The subject of another assay is patient's PBMCs. To be noted: 6 weeks after vaccination vs before treatment. How it is done:
The above described method is used for monitoring an immune response in 2 melanoma patients that were treated by an immunotherapy based on a peptide vaccine consisting of the HLA-B^∗0702-restricted T cell epitope […] (aa97-111) (SEQ ID NO: 40) of the tumor-associated antigen NY-ESO 1. In order to evaluate whether or not patients would benefit from a corresponding peptide vaccination therapy, HLA genotyping is done to test for HLA-B^∗0702 and tumor biopsies are examined for high NY-ESO 1 expression.
as §1, §2

Regarding ATPMEAELARRSLAQ, the “tumor mass in the CT scan” value with tumor (both patients, along with the T cell response seen 6 weeks after vaccination) is recorded as “loss of the tumor mass”. Also, the “tumor in CT scan” value in the assay with tumor (patient 1, 12 weeks after vaccination) is “continuous tumor regression”; with tumor (patient 2, 12 weeks after vaccination), “growing again”. The “HLA expression profile of tumor cells” value with HLA-B∗0702 (patient 1, tumor biopsy 12 weeks after the last vaccination) is reported as “normal HLA expression profile”. Further, in the assay on HLA-B∗0702 (patient 2, tumor biopsy 12 weeks after the last vaccination), the “expression of HLA-B∗0702 in tumor cells” value is given as “completely lost”. For the same sequence, the “expression of isotypes of HLA class I and II” value with HLA-B∗0702 (patients' PBMCs, all time points) is given as “expressed at normal levels”. For the same sequence, the “increased expression of the TCR-β sequence V4.1 D2 J2.1 C2” value with patient's PBMCs (patient 1, PBMCs) is given as 9.6 fold; with patient's PBMCs (patient 2, PBMCs), 10.6 fold. The “increased expression of the TCR-α sequence V1.1 J23 C” value in the assay with patient's PBMCs (patient 1, PBMCs, 1 mg peptide every 2 weeks for 6 doses) amounted to 10.3 fold; in the assay with patient's PBMCs (patient 2, PBMCs), 9.3 fold.
